Experimental findings from ChEMBL document CHEMBL5338783, “Discovery of an Anti-TNF-α 9-mer Peptide from a T7 Phage Display Library for the Treatment of Inflammatory Bowel Disease” (J Med Chem, 2023) are described below.

Test [1] relates to BMDM. The experiment in a line: Antiinflammatory activity in mouse BMDM cells assessed as decrease in LPS-stimulated IFN-alpha mRNA level incubated for 3 hrs by RT-qPCR analysis. The test is classed as functional, cell-based. The note with it: dose 25-100 µM. (Quantitative PCR measures a nucleic acid by following its amplification.)
The subject of test [2] is Mus musculus. The experiment in a line: Anti-colitis activity against DSS-induced acute colitis in C57BL/6 mouse model assessed as reduction in granulocyte infiltration in colon at 0.5 to 1 mg/kg, ip daily for 11 days by H and E staining based analysis. Format: functional, organism-based. The note with it: dose 0.5-1 mg/kg, time 11.0 day.
Test [3] concerns Mus musculus. In words: Anti-colitis activity against DSS-induced acute colitis in C57BL/6 mouse model assessed as reduction in colonic epithelial disruption at 0.5 to 1 mg/kg, ip daily for 11 days by H and E staining based analysis. The note with it: dose 0.5-1 mg/kg, time 11.0 day. Format: functional, organism-based.
The subject of test [4] is Mus musculus. In words: Anti-colitis activity against DSS-induced acute colitis in C57BL/6 mouse model assessed as […] in IL-6 mRNA level at 0.5 to 1 mg/kg, ip daily for 7 days by RT-qPCR analysis. Format: functional, organism-based. The note with it: dose 0.5-1 mg/kg, time 7.0 day.
Test [5] deals with BMDM. In words: Antiinflammatory activity in mouse BMDM cells assessed as decrease in LPS-stimulated IL-1beta mRNA level incubated for 3 hrs by RT-qPCR analysis. The test is classed as functional, cell-based. The note with it: dose 25-100 µM.
Test [6] has as its system Mus musculus. In words: Anti-colitis activity against DSS-induced acute colitis in C57BL/6 mouse model assessed as decrease in disease activity index at 0.5 to 1 mg/kg, ip daily for 7 days. Format: functional, organism-based. To be noted: dose 0.5-1 mg/kg, time 7.0 day.
The subject of test [7] is Mus musculus. In words: Anti-colitis activity against DSS-induced acute colitis in C57BL/6 mouse model assessed as reduction in colon length at 0.5 to 1 mg/kg, ip daily for 11 days. To be noted: dose 0.5-1 mg/kg, time 11.0 day. Format: functional, organism-based.
The subject of test [8] is Mus musculus. The experiment in a line: Anti-colitis activity against DSS-induced acute colitis in C57BL/6 mouse model assessed as reversal of body weight loss at 0.5 to 1 mg/kg, ip daily for 11 days. To be noted: dose 0.5-1 mg/kg, time 11.0 day. Format: functional, organism-based.
Test [9] has as its system Mus musculus. In words: Antiinflammatory activity against DSS-induced acute colitis in C57BL/6 mouse model assessed as decrease in IkappaBalpha phosphorylation in colon tissue administered intraperitoneally daily for 7 days by Western blot analysis. To be noted: dose 0.5-1 mg/kg, route ip, time 7.0 day. The test is classed as functional, organism-based.
Test [10] concerns Mus musculus. The experiment in a line: Anti-colitis activity against DSS-induced acute colitis in C57BL/6 mouse model assessed as decrease in disease activity index at 0.5 to 1 mg/kg, ip daily for 11 days. Format: functional, organism-based. The note with it: dose 0.5-1 mg/kg, time 11.0 day.
For test [11], the system named is RAW264.7. In words: Antiinflammatory activity in LPS-stimulated mouse RAW264.7 cells assessed as inhibition of p38 phosphorylation incubated for 3 hrs by Western blot analysis. Format: functional, cell-based. The note with it: dose 25-100 µM.
The target in test [12] is T1, Tumor necrosis factor receptor superfamily member 1A (Homo sapiens) (UniProt P19438).
T1 sequence (whole entry): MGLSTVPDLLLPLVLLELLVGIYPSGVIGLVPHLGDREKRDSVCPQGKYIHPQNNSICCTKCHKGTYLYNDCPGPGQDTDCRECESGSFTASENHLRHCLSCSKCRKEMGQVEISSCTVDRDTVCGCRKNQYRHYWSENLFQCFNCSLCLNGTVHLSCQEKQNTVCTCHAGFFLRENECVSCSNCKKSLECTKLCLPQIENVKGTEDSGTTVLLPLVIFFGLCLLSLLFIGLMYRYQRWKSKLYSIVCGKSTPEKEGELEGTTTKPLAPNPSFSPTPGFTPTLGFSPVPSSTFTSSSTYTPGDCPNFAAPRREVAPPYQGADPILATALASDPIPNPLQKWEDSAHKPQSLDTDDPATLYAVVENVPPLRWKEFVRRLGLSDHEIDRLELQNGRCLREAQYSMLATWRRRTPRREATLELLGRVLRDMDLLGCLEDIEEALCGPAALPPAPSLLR
In words: Binding affinity to TNFR1 (unknown origin) at 488.3 to 500 uM incubated for 10 mins by MST assay. To be noted: dose 488.3-500 µM.

In test [13] the test system is RAW264.7. The experiment in a line: Antiinflammatory activity in mouse RAW264.7 cells assessed as decrease in LPS-stimulated IL-6 protein expression incubated for 3 hrs by flow cytometry. The note with it: dose 25-100 µM. Format: functional, cell-based. Background: In flow cytometry, cells or beads pass a laser one at a time.
Test [14] has as its target T1, Tumor necrosis factor receptor superfamily member 1A (Homo sapiens). The experiment in a line: Inhibition of TNF-alpha (unknown origin) binding to TNFR1 by SPR analysis.
Test [15] deals with Mus musculus. In words: Anti-colitis activity against DSS-induced acute colitis in C57BL/6 mouse model assessed as reduction in colon length at 0.5 to 1 mg/kg, ip daily for 7 days. The test is classed as functional, organism-based. The note with it: dose 0.5-1 mg/kg, time 7.0 day.
For test [16], the system named is RAW264.7. The experiment in a line: Antiinflammatory activity in LPS-stimulated mouse RAW264.7 cells assessed as inhibition of p65 phosphorylation incubated for 3 hrs by Western blot analysis. The test is classed as functional, cell-based. The note with it: dose 25-100 µM. On the technique in general: In western blotting, separated proteins are transferred to a membrane and probed.

Test [17] has as its system RAW264.7. The experiment in a line: Disruption of NF-kappaB/p65 nuclear import in LPS-stimulated mouse RAW264.7 cells preincubated for 30 mins followed by LPS stimulation measured after 3 hrs by immunofluorescence based microscopy. Format: functional, cell-based.
Test [18] relates to Mus musculus. The experiment in a line: Anti-colitis activity against DSS-induced acute colitis in C57BL/6 mouse model assessed as […] in IL-1beta mRNA level at 0.5 to 1 mg/kg, ip daily for 7 days by RT-qPCR analysis. Format: functional, organism-based. The note with it: dose 0.5-1 mg/kg, time 7.0 day.
In test [19] the test system is Mus musculus. The experiment in a line: Anti-colitis activity against DSS-induced acute colitis in C57BL/6 mouse model assessed as increase in body weight value at 1 mg/kg, ip daily for 7 days. The note with it: time 7 day. The test is classed as functional.

Calls of active or inactive are those of the source. No cut-off for these calls is given here. Peptide text beside a SMILES is read from it.

For the molecule `C[C@H](N)C(=O)N[C@@H](CS)C(=O)N[C@@H](Cc1cnc[nH]1)C(=O)N[C@@H](C)C(=O)N[C@@H](Cc1c[nH]c2ccccc12)C(=O)N[C@@H](C)C(=O)N1CCC[C@H]1C(=O)N[C@H](C(=O)N[C@@H](CCCNC(=N)N)C(=O)O)[C@@H](C)O` (H-ACHAWAPTR-OH), the Activity result in the test on BMDM [1], in the test on BMDM [5], with Mus musculus [9], in the test with RAW264.7 [11], with RAW264.7 [13] and in the test on RAW264.7 [16] was “Dose-Dependent Effect” throughout. Moreover, the Activity entry in the test with RAW264.7 [17] is “Dose-Dependent Effect”; with Mus musculus [19] it was 0.24. Besides, the outcome with Mus musculus [2], in the test with Mus musculus [3], in the test with Mus musculus [4], in the test with Mus musculus [6], in the test with Mus musculus [7] and in the test on Mus musculus [8] was Active. Moreover, the outcome with Mus musculus [10], in the test with Mus musculus [15] and with Mus musculus [18] was Active. Further, the result in test [12] was inactive. Further, the inhibition result in test [14] is “Active”.
